Data reported in patent US20080071116A1, “Modulators of Lysophosphatidic Acid (Lpa) Signaling and the Use Thereof” (THE BOARD OF REGENTS OF THE UNIVERSITY OF TEXAS SYSTEM, priority 2004, published 2008).

Columns and labels:
PC-3 cells [1] = test: calcium mobilization assay in androgen insensitive prostate cancer PC-3 cells; assay type: cell-based, human; settings: Homo sapiens
Experimental: (§1) The procedures for these calcium mobilization assays are as followed: OVCAR3 cells and PC-3 cells were cultured in RPMI 1640 medium with 10% FBS (fetal bovine serum). HT29 cells were cultured in DMEM (high glucose) medium with 10% FBS. All cells were cultured at about 37° C. in a humidified atmosphere with 5% CO2. After starvation in serum-free medium for about 12-24 hours, cells were harvested and loaded with about 1 μM of Indo-1 AM in serum-free medium for about 45 min at 37° C. Cells were washed in PBS and resuspended at 2×10^6 cells/ml in a [Ca^2+]i assay buffer (Sodium chloride, NaCl, about 140 mM, potassium chloride, KCl, about 2 mM, magnesium chloride, MgCl2, about 1 mM, calcium chloride, CaCl2, about 2 mM, in about 25 mM HEPES buffer at pH 7.4 with about 10 mM of glucose). Cytoplasmic [Ca^2+]i was determined at an excitation wavelength of about 331 nm and an emission wavelength of 410 nm using a fluorescence spectrophotometer (Hitachi, F-4000). Approximately 3×10^6 cells were used for [Ca^2+]l determination in a stirred quartz cuvette kept at about 37° C. OMPT or 18:1 LPA was dissolved in about 0.1% BSA/PBS solution and applied immediately to the cells. To test other LPA derivatives of the invention, cells were exposed to the derivatives for about 3 minutes or for a period of various times in time course related experiments before a LPA agonist, such as 18:1 LPA, OMPT, or other LPAs was applied into the cuvette.
(§2) The concentration of calcium mobilization giving the half-maximal response (EC50) was obtained from the concentration-response curve fitted to a sigmoidal logistic equation, with the maximal calcium response set to 100% using the GraphPad Prism. Maximal response value is expressed as mean +/−s.e.m. EC50 value is expressed with 95% confidence.

LPA3 receptor = biological target: T1, LPA3 receptor (Homo sapiens, UniProt Q9UBY5); test: HA-Erk1 phosphorylation in HEK 293 T cells transfected with LPA3; assay type: cell-based; set-up: expressed in transfected cells; settings: LPA3 transfected HEK 293 T; 0.01, 0.1, or 1 μM
T1 sequence (Q9UBY5 1-353): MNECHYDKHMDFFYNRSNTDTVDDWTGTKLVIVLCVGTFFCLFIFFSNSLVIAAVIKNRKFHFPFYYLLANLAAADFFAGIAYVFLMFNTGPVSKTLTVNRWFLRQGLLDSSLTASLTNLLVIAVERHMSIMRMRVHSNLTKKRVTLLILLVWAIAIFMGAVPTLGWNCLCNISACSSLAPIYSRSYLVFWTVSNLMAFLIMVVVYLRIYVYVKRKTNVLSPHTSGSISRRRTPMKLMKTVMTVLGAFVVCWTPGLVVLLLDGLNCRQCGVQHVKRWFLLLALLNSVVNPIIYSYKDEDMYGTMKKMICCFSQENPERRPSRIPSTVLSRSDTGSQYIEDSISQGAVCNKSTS
Text: (§3) We have also tested kinase activation by the LPA3 receptor subtype using OMPT as a tool. We determined whether activation of the LPA3 receptor by OMPT can be linked to ERK activation (related to MAP kinase signaling pathway) in mammalian cells, HEK 293 T cells, by co-transfecting hemagglutinin (HA)-tagged Erk1 (HA-Erk1) with either a control vector or an expression vector having LPA1, LPA2, or LPA3. […] There is no phosphorylation of HA-Erk1 at lower concentration of LPA or OMPT in the absence of LPA receptors. […] Thus, the data confirmed that OMPT, an LPA derivative, is a selective agonist for LPA3 receptor subtype, capable of inducing MAPK activation.

ERK1/2 = ERK1/2 (p42/p44-MAPK) phosphorylation immunoblot in prostate cancer cells; assay type: cell-based, human; settings: PC-3 and DU145 cells
Experimental: (§4) The cells were then lysed in SDA sample buffer or ice-cold X-100 lysis buffer (1% Triton X-100, 50 mM HEPES [pH7.4], 150 mM NaCl, 1.5 mM MgCl2, 1 mM EGTA, 10% glycerol, 100 mM NaF, 10 mM Na pyrophosphate, and 1 mM aprotinin). Total cellular protein was resolved by SDS/PAGE, transferred to immobilon [poly (vinylidene difluoride)], and immunoblotted with antibodies following the protocols provided by manufactures. Immunocomplexes were visualized with an enhanced chemiluminescence detection kit (Amersham Pharmacia) using horseradish peroxidase-conjugated secondary antibodies (Bio-Rad).

LPA1 receptor = LPA1 receptor (Homo sapiens, UniProt Q92633); test: HA-Erk1 phosphorylation in HEK 293 T cells transfected with LPA1; assay type: cell-based; set-up: FLAG; expressed in transfected cells; host or cells: HEK 293 T cells; settings: LPA1 transfected HEK 293 T; 0.01, 0.1, or 1 μM
Text: as §3

HT29 cells = test: calcium mobilization assay in colon cancer HT29 cells; assay type: cell-based; settings: HT29 cells
Experimental: as §1, §2

PC-3 cells [2] = test: cellular proliferation and growth factor withdrawal-induced apoptosis; assay type: cell-based, human
LPA2 receptor = LPA2 receptor (Homo sapiens, UniProt Q9HBW0); test: GTP[γ-35S] binding assay, HEK293 T membranes, LPA2; assay type: biochemical; set-up: expressed in transfected cells; host or cells: HEK293 T cells (crude microsomal membranes); settings: HEK293 transfected with LPA2, FIG. 59B
Experimental: OMPT also enhances GTP [γ-^35S] binding in the cell membrane of HEK293 T cells expressing LPA3. The procedures for these GTP [γ-^35S] binding assays involve co-transfection of HEK293 T cells with expression vectors encoding one of the receptors for LPA (LPA1, LPA2, or LPA3) or S1P (S1P3/Edg3) by calcium phosphate precipitation, together with plasmids encoding three G proteins (rat Gi2α, cow β1, and cow γ2). After about 48 hours, cells were harvested and crude microsomal membranes were prepared. Membranes containing about 5 μg of protein were incubated in 0.1 ml of GTP-binding buffer (50 mM Hepes, 100 mM NaCl, 10 mM MgCl2, pH7.5) having 5 μg of saponin, 0.1% fatty acid-free BSA, 10 μM GDP, 0.1 nM GTP[γ-^35S] (1200 Ci/mmole) together with indicated concentrations of LPA or OMPT for about 30 min at 30° C. Membranes were collected using a 96-well Brandel Cell Harvester (Gaithersburg, Md.), and bound radionuclide was determined using a Packard TopCount liquid scintillation counter.

[3] = tested on: vasodilator-stimulated protein (VASP); test: VASP phosphorylation in PC-3 cells; assay type: cell-based, human
Experimental: as §4
To determine the mechanisms regulating LPA-induced cell migration, actin filament binding proteins that link receptor signaling to lamellipodia formation were evaluated.

LPA1 receptor, sequence (Q92633 whole entry): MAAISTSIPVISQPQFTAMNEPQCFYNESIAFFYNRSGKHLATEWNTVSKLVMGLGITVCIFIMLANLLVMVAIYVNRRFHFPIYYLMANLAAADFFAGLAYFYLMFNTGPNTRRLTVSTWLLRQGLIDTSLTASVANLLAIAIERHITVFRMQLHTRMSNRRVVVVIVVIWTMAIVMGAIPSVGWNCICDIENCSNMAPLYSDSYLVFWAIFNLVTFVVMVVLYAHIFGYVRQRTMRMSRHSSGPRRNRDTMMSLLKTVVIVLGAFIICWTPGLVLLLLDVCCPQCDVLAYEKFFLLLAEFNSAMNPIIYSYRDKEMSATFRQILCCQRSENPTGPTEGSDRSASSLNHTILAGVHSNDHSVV
LPA2 receptor, sequence (Q9HBW0 whole entry): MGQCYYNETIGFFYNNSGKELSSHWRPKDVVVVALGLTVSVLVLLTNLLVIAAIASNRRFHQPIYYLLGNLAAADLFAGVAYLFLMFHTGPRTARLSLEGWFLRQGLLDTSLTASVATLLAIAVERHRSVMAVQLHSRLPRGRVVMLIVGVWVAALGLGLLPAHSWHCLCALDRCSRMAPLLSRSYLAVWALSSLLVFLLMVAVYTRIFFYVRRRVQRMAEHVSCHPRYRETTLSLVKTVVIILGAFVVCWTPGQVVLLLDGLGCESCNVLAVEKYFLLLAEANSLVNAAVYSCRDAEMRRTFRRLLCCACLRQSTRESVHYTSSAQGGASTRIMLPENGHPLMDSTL

## CCCCCCCC/C=C\CCCCCCCC(=O)OCC(COP(O)(O)=S)OC (racemic) [OMPT, 1-oleoyl-sn2-O-methyl-rac-glycero-3-phosphothionate]
PC-3 cells [1]
  EC50: ~117 nM
LPA3 receptor
  HA-Erk1 phosphorylation: stimulates Erk1 phosphorylation at all concentrations tested
ERK1/2
  activation of p42/p44-MAPK: efficiently activates
LPA1 receptor
  HA-Erk1 phosphorylation: did not increase HA-Erk1 phosphorylation
HT29 cells; FIG. 3
  stimulation of calcium mobilization: but not OMPT, stimulates calcium mobilization
HT29 cells; Homo sapiens, HT-29
  EC50: < 1000 nM
PC-3 cells [2]
  cellular proliferation and prevention of growth factor withdrawal-induced apoptosis: increase cellular proliferation and prevent growth factor withdrawal-induced apoptosis
LPA2 receptor
  activation in GTP[γ-35S] binding assay: does not activate
[3]
  induction of VASP phosphorylation at Ser157 PKA site: Neither OMPT nor EGF increased phosphorylation of VASP
